According to patent publication EP0820772A1, “IMMUNOMODULATING MEDICINAL AGENT” (Travkin, Oleg Viktorovich, priority 1995, dated 1996):

Legend:
Lympho-sarcoma = assay: Antitumorous effectiveness, lympho-sarcoma tumour mass; conditions: intraperitoneally; proposed drug 30mg./kg. and prototype 300 mg./kg. on days 1, 2, 3 after transplantation; Adriamycin 600 μg./kg. on days 1 and 3; control 1124
Erlich’s carcinoma = assay: Antitumorous effectiveness, Erlich's carcinoma tumour mass; conditions: intraperitoneally; proposed drug 300 mg./kg. and prototype 300 mg./kg. on days 1 and 3 after transplantation; Adriamycin 600 μg on day 1; control 540
[1] = test system: Herpes simplex - 1 (MS strain); assay: Herpetic encephalitis, mortality; type: in vivo; conditions: 100 LD 50; 7 days after infection; intraperitoneally; AraA 20 mg./kg. every day; prototype 400 mg./kg. and proposed drug 25 mg./kg. 4 h before and 24 h after infection; control 100%
Semlika forest virus = Semlika forest virus infection, mortality; type: in vivo; conditions: 30 LD 50; 12 days after infection; intraperitoneally; Remantadin 20 mg./kg 4 h and 24 h after infection; proposed drug 10 mg./kg 4 h before and 24 h after infection; control 80%
[2] = in vivo
leukosis L 1210 = assay: Treatment of developing leukosis L 1210; conditions: orally on days 1, 2, 3 after transplantation; proposed drug 30 mg./kg., prototype 400 mg./kg.; control 96
[3] = test system: Herpes simplex-2 (Ela 5699 strain); assay: Rabbit keratitis, severity of clinical symptoms; conditions: daily instillation: megosin 3% ointment, prototype 5% ointment, proposed drug 2.1% suspension; for Index of severity of clinical symptoms on day 5 following infection: control 14; for Index of severity of clinical symptoms on day 7 following infection: control 17; for Index of severity of clinical symptoms on day 9 following infection: control 13; for Index of severity of clinical symptoms on day 14 following infection: control 2
[4] = test system: Venezuelan equine encephalitis virus (SPF strain); type: in vivo; conditions: intraperitoneally, Poly (G) 0.1 g./kg. and prototype 200 mg./kg. at infection and 24 h after, proposed drug 20 mg./kg 4 h before and 24 h after infection

Compound	Indices of efficacy (Mean tumour mass (mg.)) (Lympho-sarcoma)	Indices of efficacy (Mean tumour mass (mg.)) (Erlich’s carcinoma)	Indices of efficacy, % mortality [1]	Indices of efficacy, % mortality (Semlika forest virus)	toxicity (therapeutic index) [2]	Percentage of blastular cells in peripheral blood (leukosis L 1210)	Index of severity of clinical symptoms on day 5 following infection [3]	Index of severity of clinical symptoms on day 7 following infection [3]	Index of severity of clinical symptoms on day 9 following infection [3]	Index of severity of clinical symptoms on day 14 following infection [3]	Degree of suppression of viral reproduction in the brain 48 hours after infection, expressed as a percentage relative to the control [4]
COc1cccc2c1C(=O)c1c(O)c3c(c(O)c1C2=O)C[C@@](O)(C(=O)CO)C[C@@H]3O[C@H]1C[C@H](N)[C@H](O)[C@H](C)O1 [Adriamycin]	622 mg	100 mg									
Nc1ncnc2c1ncn2[C@@H]1O[C@H](CO)[C@@H](O)[C@@H]1O [AraA, adenin - arabinosid]			42%, 7 days after infection								
CC(N)C12CC3CC(CC(C3)C1)C2 (stereo not drawn) [Remantadin]				20%, 12 days after infection							
CN(C)CCOc1ccc2cc3cc([N+](=O)[O-])c(OCCN(C)C)c(Cl)c3nc2c1Cl [The prototype, 3.6 - bis(2-dimethylaminetoxy)-4.5-dichlorine-2-nitroacridine]	820 mg	200 mg	22%		10-15	40%	10	14	8	1	74%
ether of 10 - methylencarboxylat-9-acridone [The proposed drug]	534 mg	74 mg	5%	0%		18%	5	3	1	0	98%
